{"source": "patent US20250084409A1", "about": "“COMPOSITIONS AND METHODS FOR CAPPING RNAS” (Verve Therapeutics, Inc., priority 2022, published 2025)", "key": {"[1]": {"tested_on": "NHP ANGPTL3", "test": "In vivo ABE base editing in NHP liver (LNP, NGS)", "conditions": "LNP with sgRNA targeting NHP ANGPTL3 and ABE mRNA, FIG. 8", "experimental": "Lipid nanoparticles (LNPs) are generated by microfluidic mixing using the Precision Nanosystems NanoAssemblr system according to the manufacturer's protocol, with some optimization for individual payloads. The resulting LNPs are filtered using 0.2-micron filters and stored at 4° C. or frozen at −80° C.\nLNPs used in these studies were prepared with sgRNA targeting ANGPTL3 and ABE encoding mRNAs with 5′ end region motifs as described in Example 11A, comprising chemically synthesized sgRNAs targeting the NHP ANGPTL3 genes and ABE8.8 mRNA in a 1:1 weight ratio. LNPs were administered to NHP (n=3 per group) by one single intravenous infusion in a total volume of 6 mL/kg. Livers were collected 16 days post dose for NGS measurements of editing efficiency. […]\nPaired-end reads are analyzed with the CRISPResso2 pipeline (Clement, K. et al., Nat. Biotech. 2019, 37, 224-226). Briefly, low-quality reads are filtered out, adapter sequences are trimmed from the reads, and the paired-end reads are merged and aligned to the amplicon sequence. The editing percentage is calculated as the number of reads supporting […], over the total number of aligned reads. For ABE, the editing percentage is calculated as the number of reads supporting […], over the total number of aligned reads. […]"}, "[2]": {"tested_on": "cells", "test": "Cas9 protein expression in cells (antibody detection)", "assay_type": "cell-based", "conditions": "6 hours post transfection; low and high doses", "experimental": "Protein expression is directly assessed via antibody detection of the Cas9 protein. The measured signal is compared to that of a recombinant Cas9 of known concentration to derive the Y-axis value. […] This is consistent at both low and high doses at 6 hours post transfection. At 24 hours after transfection, the potency difference between the analogs was less pronounced, but the trend generally remained consistent."}, "[3]": {"target": "T1, T7 RNA polymerase (Escherichia phage T7, UniProt P00573)", "T1 sequence (P00573 whole entry)": "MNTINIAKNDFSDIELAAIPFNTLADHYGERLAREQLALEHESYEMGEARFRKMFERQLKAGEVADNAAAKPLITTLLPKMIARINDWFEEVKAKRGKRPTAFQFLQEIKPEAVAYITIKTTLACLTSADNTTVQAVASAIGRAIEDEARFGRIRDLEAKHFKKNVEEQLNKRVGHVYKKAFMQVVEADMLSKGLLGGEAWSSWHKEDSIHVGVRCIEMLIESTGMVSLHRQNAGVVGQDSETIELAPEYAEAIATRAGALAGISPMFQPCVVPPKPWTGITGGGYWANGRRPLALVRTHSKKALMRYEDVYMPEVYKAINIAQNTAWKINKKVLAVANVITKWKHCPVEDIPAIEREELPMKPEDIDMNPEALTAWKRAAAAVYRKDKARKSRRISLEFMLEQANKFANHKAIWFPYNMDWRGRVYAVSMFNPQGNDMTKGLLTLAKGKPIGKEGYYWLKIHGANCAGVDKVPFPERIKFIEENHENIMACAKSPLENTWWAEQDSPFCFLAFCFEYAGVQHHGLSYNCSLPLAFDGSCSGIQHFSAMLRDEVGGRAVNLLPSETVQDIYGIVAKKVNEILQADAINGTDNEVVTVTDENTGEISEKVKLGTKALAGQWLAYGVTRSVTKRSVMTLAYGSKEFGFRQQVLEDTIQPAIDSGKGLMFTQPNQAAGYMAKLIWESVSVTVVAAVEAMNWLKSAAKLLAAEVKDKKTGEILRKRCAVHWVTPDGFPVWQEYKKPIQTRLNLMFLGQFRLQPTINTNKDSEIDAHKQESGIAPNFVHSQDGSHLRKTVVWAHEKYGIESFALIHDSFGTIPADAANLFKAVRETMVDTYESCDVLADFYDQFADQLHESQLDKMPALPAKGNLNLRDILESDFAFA", "assay_type": "biochemical", "conditions": "for mRNA full-length purity: ABE mRNA MA004, capillary gel electrophoresis; for amount of full-length mRNA produced: initiator-to-NTP ratio ranging from 1:1 down to 1:5"}, "[4]": {"tested_on": "RIG-I", "test": "RIG-I activation in HEK-Lucia RIG-I reporter cells", "assay_type": "cell-based", "experimental": "(§1) LNPs are prepared and administered in vivo to mice as in Example 11(A,B). Blood is collected at appropriate time points, typically at intervals between 1-48 hours post-dose and terminal end point, and processed to serum or plasma per techniques well known in the art. Serum or plasma cytokine and chemokine levels are measured using V-PLEX cytokine and chemokine detection kits. Cytokine and chemokine levels are compared to animals treated with buffer alone as well as pre-dose sampling of the treatment animals. In some instances, the immune stimulation of capped mRNA is assessed after in vitro transfection to reporter cell lines such as HEK-Lucia RIG-I cell reporter model, which produces luciferase signal in the presence of IFN-stimulated response elements such as uncapped mRNA. This cell model is cultured and transfected as described in Example 7, and luciferase activity is measured using a luciferase activity kit and plate reader. It is known in the art that uncapped mRNA produces a RIG-I-dependent IFN immune response, and capped mRNA lessens this immune stimulation. […] The results of this example were compared using mRNA made with a commercially available 5′ end initiator, 1002a, as a reference.\nRIG-I overexpressed reporter HEK293 cells were utilized to evaluate cap specific immune response. mRNA with different cap analogs were transfected to the reporter cells. This cell model is cultured and transfected as described in Example 7. The response was measured at 24 hours after transfection. RIG-I is a cytosolic pattern recognition receptor that is responsible for the type-1 interferon response and can respond to 5′ triphosphate of RNA."}, "[5]": {"tested_on": "HeLa lysate", "test": "Translation of luciferase mRNA in HeLa lysate in vitro translation kit", "assay_type": "biochemical", "conditions": "luminescence", "experimental": "HeLa cells are cultured in RPMI with 10% FBS at 37° C. under 5% CO2 atmosphere. Cells are plated into an appropriately sized well plate per manufacturer's recommended seeding conditions. After overnight incubation, cells are checked for monolayer formation and then transfected using a transfection agent such as MessengerMAX. Solution A: the desired amount of luciferase mRNA is diluted in OptiMEM and mixed with Solution B: MessengerMAX in OptiMEM. After mixing solutions A and B, the mixture is incubated at room temperature for 20 minutes, and then added dropwise to each well of cells. The cells are then incubated at 37° C. for 12-72 hours to allow for expression of mRNA into protein. Cells are harvested and prepared for measuring luciferase protein levels per Promega luciferase assay system protocol. […] For example, luciferase encoding mRNA with 5′ end region motif, 1007a, was added to a commercially available HeLa lysate in vitro translation kit to produce luciferase protein. Luciferase protein activity as measured by luminescent light production in the presence of a luciferin substrate, was measured with a luminescence-detecting plate reader. Relative light units measured per this assay are proportional to the amount of luciferase protein translated from mRNA. […]"}, "[6]": {"tested_on": "TNF-α, IFN-γ, IFN-α, IFN-β, MIP-1B, IP-10, IL-10, IL-6", "test": "In vivo immunogenicity: serum cytokine and chemokine levels in mice", "set-up": "species or system mouse", "conditions": "LNPs 1 mg/kg and 3 mg/kg", "experimental": "as §1\nIn vivo immunogenicity was quantified as described in Example 12. Mice were treated with LNPs at a level of 1 mg/kg and 3 mg/kg, and serum was collected 3 hours and 24 hours post-injection. […] For comparison, cytokine measurements were also completed for mRNA comprising commercially available 5′ end initiator 1002a."}, "[7]": {"target": "T1, T7 RNA polymerase"}, "[8]": {"target": "T1, T7 RNA polymerase", "conditions": "for production yield for ABE encoding mRNA: ABE mRNA MA004, IVT with T7 polymerase, 37° C., about 1-4 hours, UV spectrometry; for mRNA production yield: ABE mRNA MA079, 4 mM analog, 90 minutes, UV absorption"}, "[9]": {"tested_on": "Primary human hepatocytes", "test": "Luciferase expression in primary human hepatocytes", "assay_type": "cell-based", "conditions": "6 hours after transfection, 106.3 ng of mRNA dose", "source_text": "The harvested cell lysate was subjected to conditions to derive a quantifiable fluorescent signal. This signal was then compared to analog 1002a to determine how structural differences may be related to the changes in expression. Primary human hepatocytes were subjected to two different doses of mRNA encoding for the protein luciferase made using the indicated test analogs. A single RNA molecule may be interpreted by protein synthesis machinery multiple times, so an analog that may increase the frequency of interpretation may be desirable as a 5′ initiator. This frequency of interpretation, or translation efficiency, may be determined by measuring the amount of protein produced in a population of cells exposed to a known amount of RNA at a given point following that exposure. The duration of expression may also be assessed to determine how an analog may sustain the observed expression, as the RNA molecule is eventually decayed within the cell thereby destroying its protein-encoding capacity. […] Similar protein expression profiles was also observed at 24 hours post transfection (FIG. 17b)."}, "[10]": {"target": "T7 polymerase (Escherichia phage T7, UniProt P00573)", "sequence (P00573 whole entry)": "as above", "conditions": "J. Mol. Biol. (2007) 370, 256-268; read-out: Kd of T7 polymerase for the first initiating guanosine; cited from earlier work"}, "[11]": {"conditions": "serum 24 hours post-injection, baseline = about pre-injection level"}}, "note": "Read-outs that look alike come from different tables or passages of the source.", "data": [{"compound": "COC1C(OP([O-])(=S)OCC2OC(n3cnc4c(=O)[nH]c(N)nc43)C(O)C2O)C(COP(=O)(O)OP(=O)(O)OP(=O)(O)OCC2OC(n3c[n+](C)c4c(=O)[nH]c(N)nc43)C(O)C2O)OC1n1cnc2c(N)ncnc21", "note": "(stereo not drawn) [1007a, m^7G(ppp) Am(ps)G]", "values": [{"measurement": "base editing efficacy compared to mRNAs with 1002a 5′ end region motif", "setting": "[1]", "result": "lower or similar base editing efficacy"}, {"measurement": "Cas9 expression", "setting": "[2]", "result": "largely similar among most analogs except 1007a_D1 and 1007a"}, {"measurement": "mRNA full-length purity", "setting": "[3]", "result": "about 88%"}, {"measurement": "amount of full-length mRNA produced", "setting": "[3]", "result": "did not reduce"}, {"measurement": "RIG-I activity as compared to uncapped mRNA", "setting": "[4]; HEK-Lucia RIG-I cell reporter model, FIG. 9", "result": "reduced RIG-I activity"}, {"measurement": "RIG-I activation as a result of the chemical modifications to the cap structure", "setting": "[4]; HEK-Lucia RIG-I cell reporter model, reference 1002a", "result": "did not appear to increase RIG-I activation"}, {"measurement": "luciferase activity relative to mRNA with initiator 1002a", "setting": "[5]", "result": "around 2 ×"}, {"measurement": "cytokines (TNF-α, IFN-γ, IFN-α, IFN-β, MIP-1B, IP-10, IL-10, IL-6)", "setting": "[6]; serum 3 hours post-injection", "result": "detectable"}, {"measurement": "cytokines (TNF-α, IFN-γ, IFN-α, IFN-β, MIP-1B, IP-10, IL-10, IL-6)", "setting": "[6]; [11]", "result": "returned to baseline"}, {"measurement": "capping efficiency", "setting": "[7]; initiator-to-NTP ratio ranging from 1:1 down to 1:2.5", "result": "> 90", "unit": "%"}, {"measurement": "production yield for ABE encoding mRNA", "setting": "[8]", "result": "about 3.3 mg per 1 ml of IVT reaction"}, {"measurement": "mRNA production yield", "setting": "[8]", "result": "~4", "unit": "mg/mL"}]}, {"compound": "COC1C(O[P@@]([O-])(=S)OCC2OC(n3cnc4c(=O)[nH]c(N)nc43)C(O)C2O)C(COP(=O)(O)OP(=O)(O)OP(=O)(O)OCC2OC(n3c[n+](C)c4c(=O)[nH]c(N)nc43)C(O)C2O)OC1n1cnc2c(N)ncnc21", "note": "(stereo partly drawn) [1007a_D1, m^7G(ppp) Am(ps)G]", "values": [{"measurement": "Cas9 expression", "setting": "[2]", "result": "largely similar among most analogs except 1007a_D1 and 1007a"}, {"measurement": "mRNA full-length purity (FLP)", "setting": "[3]; ABE mRNA MA079, 4 mM analog, 90 minutes, electrophoretic separation", "result": 79.4, "unit": "%"}, {"measurement": "RIG-I response", "setting": "[4]; RIG-I overexpressed reporter HEK293 cells, 24 hours after transfection, FIG. 14", "result": "lowest RIG-I response"}, {"measurement": "cytokines (TNF-α, IFN-γ, IFN-α, IFN-β, MIP-1B, IP-10, IL-10, IL-6)", "setting": "[6]; serum 3 hours post-injection", "result": "detectable"}, {"measurement": "cytokines (TNF-α, IFN-γ, IFN-α, IFN-β, MIP-1B, IP-10, IL-10, IL-6)", "setting": "[6]; [11]", "result": "returned to baseline"}, {"measurement": "mRNA production yield", "setting": "[8]", "result": "slightly lower"}]}, {"compound": "COC1C(O[P@]([O-])(=S)OCC2OC(n3cnc4c(=O)[nH]c(N)nc43)C(O)C2O)C(COP(=O)(O)OP(=O)(O)OP(=O)(O)OCC2OC(n3c[n+](C)c4c(=O)[nH]c(N)nc43)C(O)C2O)OC1n1cnc2c(N)ncnc21", "note": "(stereo partly drawn) [1007a_D2, m^7G(ppp) Am(ps)G]", "values": [{"measurement": "cytokines (TNF-α, IFN-γ, IFN-α, IFN-β, MIP-1B, IP-10, IL-10, IL-6)", "setting": "[6]; serum 3 hours post-injection", "result": "detectable"}, {"measurement": "cytokines (TNF-α, IFN-γ, IFN-α, IFN-β, MIP-1B, IP-10, IL-10, IL-6)", "setting": "[6]; [11]", "result": "returned to baseline"}, {"measurement": "relative luciferase expression", "setting": "[9]", "result": "a little increased protein expression"}, {"measurement": "mRNA production yield", "setting": "[8]", "result": "~4", "unit": "mg/mL"}]}, {"compound": "COC1C(OP(=O)(O)OCC2OC(n3cnc4c(=O)[nH]c(N)nc43)C(O)C2O)C(COP(=O)(O)OP(=O)([S-])OP(=O)(O)OCC2OC(n3c[n+](C)c4c(=O)[nH]c(N)nc43)C(O)C2O)OC1n1cnc2c(N)ncnc21", "note": "(stereo not drawn) [1107a, m^7G(ppsp) Am(p)G]", "values": [{"measurement": "mRNA full-length purity", "setting": "[3]", "result": "about 86%"}, {"measurement": "amount of full-length mRNA produced", "setting": "[3]", "result": "did not reduce"}, {"measurement": "capping efficiency", "setting": "[7]; initiator-to-NTP ratio ranging from 1:1 down to 1:1.67", "result": "> 90", "unit": "%"}, {"measurement": "production yield for ABE encoding mRNA", "setting": "[8]", "result": "about 3.3 mg per 1 ml of IVT reaction"}]}, {"compound": "Nc1nc2c(ncn2[C@@H]2O[C@H](COP(=O)(O)OP(=O)(O)OP(=O)(O)O)[C@@H](O)[C@H]2O)c(=O)[nH]1", "note": "[GTP]", "values": [{"measurement": "Kd", "setting": "[10]", "result": 2000, "unit": "µM"}]}, {"compound": "COC1C(OP(=O)(O)OCC2OC(n3cnc4c(=O)[nH]c(N)nc43)C(O)C2O)C(COP(=O)(O)OP(=O)([O-])OP(=O)(O)OCC2OC(n3c[n+](Cc4ccc(Cl)cc4)c4c(=O)[nH]c(N)nc43)C(O)C2O)OC1n1cnc2c(N)ncnc21", "note": "(stereo not drawn) [compound 5231, 4-Cl-Bn7G(ppp) Am(p)G]", "values": [{"measurement": "cytokines (TNF-α, IFN-γ, IFN-α, IFN-β, MIP-1B, IP-10, IL-10, IL-6)", "setting": "[6]; serum 3 hours post-injection", "result": "detectable"}, {"measurement": "cytokines (TNF-α, IFN-γ, IFN-α, IFN-β, MIP-1B, IP-10, IL-10, IL-6)", "setting": "[6]; [11]", "result": "returned to baseline"}, {"measurement": "mRNA production yield", "setting": "[8]", "result": "slightly lower"}]}]}
